Results as given in patent publication EP0572365A2, “Heteroprostanoids, process for their production and therapeutical use thereof” (NUOVO CONSORZIO SANITARIO NAZIONALE del Dott. Paolo Malizia …, priority 1992, dated 1993).

Experiment: Stability assay: storage of buffered water solutions, residual activity measured in the thrombocyte aggregation assay
Format: physicochemical
Details: room temperature, water solution buffered at pH 7
Source text: The stability of some compounds according to the present invention has been compared with that of a natural prostaglandine through storage at room temperature of water solutions buffered at pH 7, by measuring the residual activity in the assay of thrombocyte aggregation at different times; the results, listed in Table III, show a much greater stability: […]

| residual activity in the assay of thrombocyte aggregation (7 gg) | residual activity in the assay of thrombocyte aggregation (1h) | residual activity in the assay of thrombocyte aggregation (12h) | residual activity in the assay of thrombocyte aggregation (24h) | SMILES |
| --- | --- | --- | --- | --- |
| 7 gg: 4 | 1h: 98 | 12h: 78 | 24h: 62 | CCCCCNC(=O)CN1CCC[C@H]1C(=O)OCCCCC(=O)O [III (X₂=R₂=R₆=CH₂, R₄=CO, R=H, n=4, m=3), L-7-14-dioxo-12,15-diaza-6-oxa-prostanoic acid] |
| 7 gg: 15 | 1h: 100 | 12h: 92 | 24h: 80 | CCCCC(=O)NCC(=O)N1CCC[C@H]1C(=O)OCCCCC(=O)O [III (X₂R₄=CH₂, R₂=R₆=CO, R=H, n=4, m=3), L-7,13,16-trioxo-12,15-diaza-6-oxa-prostanoic] |
| 7 gg: 0 | 1h: 30 | 12h: 2 | 24h: 0 | CCCCC[C@H](O)/C=C/[C@H]1[C@H](O)CC(=O)[C@@H]1CCCCCCC(=O)O [PGE₁, Alprostadil, reference compound] |
